Data: patent US20020111314A1, “Novel stimulation of gene expression and protein synthesis of heat shock protein 72/73 (Hsp 70)” (The Trustees of Columbia University, priority 1995, published 2002)
Entries after “also recorded” stand apart in the source; their conditions may differ. Numbered stars: 1 amine (or outer) side, 2 acyl side, 3 side chain; on linkers, the order of the positions; unused ones are H or OH. Bridge positions count the residues as written; N and C are the ends. Square brackets hold non-standard residues; d marks the D form. Peptide text beside a SMILES is read from it. I, II: the chains in the order shown. * marks the point of attachment. Actinocin(9to1) = Cc1c2oc3c(C)ccc(C(=O)[*:1])c3nc-2c(C(=O)[*:2])c(N)c1=O; Sta = CC(C)C[C@H](N)[C@@H](O)CC(=O)O; NMeV = CN[C@H](C(=O)O)C(C)C; Isovaleryl = CC(C)CC(=O)*; Cbz = O=C(OCc1ccccc1)*; Sar = CNCC(=O)O

How the values were obtained:
Hsp70 = Hsp70 induction in HepG2 cells ([3H]-leucine labeling, denaturing immunoprecipitation); type: cell-based, human; settings: HepG2; for induction of Hsp70 by protease inhibitors (FIG. 3A): 4 h pre-treatment, ALLN 40, ALLM 40, leupeptin 50, pepstatin A 50, E-64d 25 μg/ml, PMSF 1 mM, aprotinin 100 KIU/ml
Experimental: HepG2 cells were grown up to 95% confluence and then preincubated for 4 hours in a 37° C. incubator with serum-free minimum essential medium (MEM), followed by radiolabeling with 3H-leucine (150 μCi/ml) dissolved in serum-free, leucine-free medium. Preincubation and labeling medium each contained 1.5% bovine serum albumin (BSA) plus different concentrations of ALLN as indicated. After labeling, cells were collected and lysed, and Hsp70 was immunoprecipitated under denaturing conditions as described under Experimental Details. Cell lysates containing an equal amount of TCA-insoluble radioactivity were used for immunoprecipitation. (A): The immunoprecipitates were analyzed by sodium dodecyl sulfate-polyacryamide gel electrophoresis (SDS-PAGE) and fluorography. Numbers on the left-hand side denote molecular markers. (B): The Hsp70 radioactivity was quantitated by scintillation counting and plotted. All the values were presented as means±SD from three individual culture dishes.
(§1) FIGS. 3A-3B: Effects of the other protease inhibitors on Hsp70 biosynthesis in HepG2 cells. HepG2 cells were preincubated in serum-free MEM containing either 1.5% BSA alone (Control), or BSA plus 40 μg/ml of ALLN, 40 μg/ml of ALLM, 50 μg/ml of leupeptin, 50 μg/ml of pepstatin A, 25 μg/ml of E-64d, 1 mM of phenylmethylsulfonyl fluoride (PMSF), 100 KIU/ml of apotinin, 1 mM of Benzamidine (Benz), 200 μM of calpain inhibitor peptide (CIP). Radiolabeling (in the presence of protease inhibitors), lysis and immunoprecipitation were performed as described in FIG. 1. The Hsp70 specific radioactivity (A) and the amount of total incorporated radioactivity (TCA-cpm) (B) were compared with each other. All the values were presented as the mean±SD from three individual culture dishes.
FIGS. 9A-9B: Effects of proteasome inhibitors on Hsp70 induction. HepG2 cells were preincubated with the proteasome inhibitors MG132 at a final concentration of either 10 μM or 30 μM (A), or lactacystin at 10 μM (B) for 4 hours under conditions described in FIG. 3. These cells were then subjected to radiolabeling (30 min), cell lysis, and immunoprecipitation with anti-Hsp70 antibody. The experiments with MG132 (A) were repeated twice; the effects of lactacystin (B) were studied in triplicate culture dishes.
ALLN, leupeptin, mouse anti-human Hsp72/73 monoclonal antibody, a secondary antibody conjugated with horseradish peroxidase (HRP) (goat anti-rabbit immunoglubin G [IgG]), and rabbit anti-rat IgG antibody were from Boehringer Mannheim Co. Anti-Human Hsp25 and anti-human Hsp60 monoclonal antibodies, ALLM, Calpain inhibitor peptide (CIP), dimethyl sulfoxide (DMSO) and dithiothreitol (DTT) were from Sigma. Human Hsp70 oligonucleotide probe was from Oncogene Science. This oligonucleotide was ^32P labeled at the 5′-end by T4 Kinase, which was from Biolabs. ^32P was from ICN Pharmaceutical Inc. L-[4,5-^3H] leucine was from Amersham Co. Anti-human Bip (immunoglobulin heavy chain binding protein, also called Grp78), anti-human Hsp27, anti-human Hsp60, and anti-human Hsp90 monoclonal antibodies were from Stress Genes. Anti-human Hsp86 and Hsp104 antibodies were from Affinity Bioreagent Inc. Nitrocellular transfer and immobilization membranes were from Schleicher & Schuell, Keene, N.H. RNA extraction kits were from Biotect, Tex. The polyclonal antibody against the human HSF1 protein was a generous gift from Dr. Carl Wu of the National Institute of Health (Rabindran, et al., 1993). Ethylene glycol bis(succunimidylsuccinate) (EGS) was from Pierce. Cbz-leucyl-leucyl-leucinal (MG132) was a gift of Dr. H. Ploegh at the Massachusetts Institute of Technology. All the other tissue culture supplies and chemicals were obtained from supplies as previously described (Dixon, et al., 1991). The HepG2 cell culture conditions were maintained as previously described (Dixon, et al., 1991).

proteasomes = settings: Rock, et al., 1994; cited from earlier work
[1] = tested on: cysteine proteases, calpain and cathepsin B; settings: Rock, et al., 1994; cited from earlier work
HepG2 cells = assay: Total incorporation of radiolabel (TCA cpm) as indicator of cell toxicity in HepG2 cells; type: cell-based, human; settings: MG132 10 or 30 μM, lactacystin 10 μM, data not shown
Experimental: as §1
Preincubation and labeling media each contained either 1.5% bovine serum albumin (BSA) alone, or BSA plus ALLN (40 μg/ml except as otherwise indicated), or BSA plus other protease inhibitors at concentrations indicated in the figure legends. At the indicated times, cells were removed from the 37° C. incubator and placed on ice, washed with cold phosphate-buffer saline (PBS) twice and lysed with lysis buffer containing 1% Triton X-100 (TX100), 1% deoxycholic acid (DOC) and 0.1% SDS in PBS containing proteinase inhibitors: 2 mM phenylmethylsulfonyl fluoride (PMSF); 2 μg/ml ALLN; 2 μg/ml leupeptin; and 2 μg/ml aprotinin. After a 30 min. incubation with lysis buffer at 4° C., the lysates were centrifuged at 14,000 g in a microcentrifuge for 5 min., and the supernatants were adjusted to 1% SDS concentration and boiled for 5 min. to denature the proteins. 1% TX100 was then added to dilute the lysates to a final concentration of 0.1% SDS. Cell lysates containing equal amounts of trichloroacetic acid (TCA)-insoluble radioactivity were used for immunoprecipitations by incubating with individual monoclonal antibody (1 μg/ml) for 2.5 hours at 4° C. Protein-A Sepharose 4B was added afterwards and the lysates incubated for another 1.5 hours at 4° C. to collect the immunocomplexes. […]

hsp70, i.e. hsp72, mRNA = assay: Northern blot of hsp70 (hsp72) mRNA in HepG2 cells; type: cell-based, human; settings: ALLN 40 μg/ml plus actinomycin D 10 μg/ml or cycloheximide 50 μg/ml, 4 hours
Experimental: After 4 hours treatment at 37° C., cells were harvested. (B). […] The total RNA was prepared, and equal amounts of the samples were loaded and run on a 1% formaldehyde-agarose gel, blotted onto a nylon membrane, and subsequently hybridized with specific synthetic oligonucleotide probes for hsp70 mRNA as described under Experimental Details. The position of 28S and 18S rRNA are shown for reference.
Equal amounts of tRNA samples (10 μg) were size-fractionated on a 1% agarose-formaldehyde gel according to the methods described (Maniatis, et al., 1982) and transferred to a piece of QIAGEN plus nylon membrane. To determine loading and transfer efficiency, RNA was stained with ethidium bromide before and after transfer. The membrane was baked for 30 min. at 80° C. in vacuo (a vacuum) followed by UV cross-linking. It was then incubated for 4 hours at 65° C. in a prehybridization mixture containing 10% dextran sulfate, 1% SDS, 1M sodium chloride, 50 mM Tris-HCl (pH 7.5) and 100 μg/ml denatured salmon sperm DNA. […] The membrane was then washed four times with 2×SSC, 0.1% SDS at room temperature, one time at 65° C. for 30 min., and one time at room temperature again for 5 min., and finally rinsed with 2×SSC at room temperature.

HSF1 = HSF1 steady-state level and trimerization (Western blot, EGS cross-linking) in HepG2 cells; type: cell-based, human
Experimental: HepG2 cells were treated with serum-free MEM containing 1.5% BSA for 2 hours at 37° C. without any additions (lane 1), at 37° C. but containing 40 μg/ml of ALLN in the medium (lane 2), at 37° C. in a medium containing both ALLN and 50 μg/ml of cycloheximide (lane 3), at 42° C. alone (lane 4), or at 42° C. plus cycloheximide in the medium (lane 5). Cell lysates were prepared as described under Experimental Details. The lysates were either directly run on the SDS-PAGE (A) to show the steady-state protein levels of HSF1 or subjected to cross-linking with ethylene glycol bis sucrinimidylsuccinate (EGS) before running the gel (B) to show the oligomeric forms of HSF1. The proteins were then transfered to a nitrocellulose membrane and immunoblotted with anti-human HSF1 antibody. Arrows on the right side indicates the monomeric, dimeric or trimeric forms of HSF1, respectively. This experiment was repeated three times with identical results.
Total RNA was prepared using the procedure of Chomczynski and Sacchi (Chomczynski, et al., 1987) and a commercially prepared reagent, TRISOLV™ (Biotecx Laboratories Inc., TX). Equal amounts of tRNA samples (10 μg) were size-fractionated on a 1% agarose-formaldehyde gel according to the methods described (Maniatis, et al., 1982) and transferred to a piece of QIAGEN plus nylon membrane. To determine loading and transfer efficiency, RNA was stained with ethidium bromide before and after transfer. The membrane was baked for 30 min. at 80° C. in vacuo (a vacuum) followed by UV cross-linking. It was then incubated for 4 hours at 65° C. in a prehybridization mixture containing 10% dextran sulfate, 1% SDS, 1M sodium chloride, 50 mM Tris-HCl (pH 7.5) and 100 μg/ml denatured salmon sperm DNA. Hybridization was carried out for 18 hours at 65° C. in the same buffer with a ^32P-labeled (1×10^6 cpm/ml) 40-mer oligonucleotide probe to the untranslated 5′ region of a human hsp70 gene (Oncogene Science). […] The membrane was then washed four times with 2×SSC, 0.1% SDS at room temperature, one time at 65° C. for 30 min., and one time at room temperature again for 5 min., and finally rinsed with 2×SSC at room temperature. This membrane was air dried and exposed to X-ray film at −80° C. for 48 hours. For measurement of the steady-state HSF1 protein levels, whole cell extracts were prepared by lysing the cells directly with 2×SDS-sample buffer (Maniatis, et al., 1982). For chemical cross-linking experiments, whole-cell extracts were prepared as described (Mosser, et al., 1988). Briefly, the cold PBS-washed cell pellets were quickly and repeatedly frozen in liquid nitrogen. […]

**Q.** For `CSCC[C@@H](C=O)NC(=O)[C@H](CC(C)C)NC(=O)[C@H](CC(C)C)NC(C)=O` [ALLM, N-acetyl-leucyl-leucyl-methioninal] (Ac-Leu-Leu-Met-aldehyde), which “induction of Hsp70 by protease inhibitors (FIG. 3A)” value (Hsp70) is on record?
**A.** The value was “significantly induce; also recorded: less ability to induce Hsp70 levels”.

**Q.** What about the inhibition of proteasomes (proteasomes) of the same compound?
**A.** Its inhibition of proteasomes is “potent inhibitors”.

**Q.** What about the “activities against calpain and cathepsin B” value [1] of the same compound?
**A.** The value was “significant activities”.

**Q.** With `CC(=O)N[C@@H](CC(C)C)C(=O)N[C@@H](CC(C)C)C(=O)N[C@H](C=O)CCCNC(=N)N` [Leupeptin, leupeptin] as the compound, how does the “induction of Hsp70 by protease inhibitors (FIG. 3A)” value (Hsp70) read?
**A.** Its value is “ineffective”.

**Q.** What does the source list for `CC(C)C[C@@H](C=O)NC(=O)[C@H](CC(C)C)NC(=O)[C@H](CC(C)C)NC(=O)OCc1ccccc1` [MG132, Cbz-leucyl-leucyl-leucinal] (Cbz-Leu-Leu-Leu-aldehyde)?
**A.** induction of Hsp70 levels by proteasome inhibitors (FIG. 9) (Hsp70; 4 hours, MG132 10 μM or 30 μM, lactacystin 10 μM, 30 min labeling): induced Hsp70 levels dramatically; toxicity to the cells (TCA-precipitable radioactivities) (HepG2 cells): without obvious toxicity

**Q.** Which “induction of Hsp70 by protease inhibitors (FIG. 3A)” value (Hsp70) does the source give for `O=S(=O)(F)Cc1ccccc1` [PMSF, phenylmethylsulfonyl fluoride] here?
**A.** Its value is “No induction”.

**Q.** Which “effect of co-treatment on ALLN-induced increase in hsp72 mRNA” value (hsp70, i.e. hsp72, mRNA) does the source give for `Cc1c2oc3c(C)ccc(C(=O)N[C@@H]4C(=O)N[C@H](C(C)C)C(=O)N5CCC[C@H]5C(=O)N(C)CC(=O)N(C)[C@@H](C(C)C)C(=O)O[C@@H]4C)c3nc-2c(C(=O)N[C@@H]2C(=O)N[C@H](C(C)C)C(=O)N3CCC[C@H]3C(=O)N(C)CC(=O)N(C)[C@@H](C(C)C)C(=O)O[C@@H]2C)c(N)c1=O` [actinomycin D] (I: T[dV]P[Sar][NMeV] / II: T[dV]P[Sar][NMeV]; ester I:1-I:C, II:1-II:C; linker I:N-II:N via Actinocin(9to1)) here?
**A.** Its value is “abolished the effects of ALLN”.

**Q.** What does the source list for `C[C@@H]1C[C@@H]([C@H](O)CC2CC(=O)NC(=O)C2)C(=O)[C@@H](C)C1` [cycloheximide]?
**A.** effect of co-treatment on ALLN-induced increase in hsp72 mRNA (hsp70, i.e. hsp72, mRNA): abolished; effect on heat shock-associated HSF1 trimerization (HSF1; 42° C. plus cycloheximide 50 μg/ml): did not, however, affect; effect of cotreatment on ALLN-induced HSF1 trimerization (HSF1; ALLN 40 μg/ml plus cycloheximide 50 μg/ml, 37° C.): abolished the effect of ALLN on HSF1 trimerization

**Q.** For `CC(C)CC(=O)N[C@H](C(=O)N[C@H](C(=O)N[C@@H](CC(C)C)[C@@H](O)CC(=O)N[C@@H](C)C(=O)N[C@@H](CC(C)C)[C@@H](O)CC(=O)O)C(C)C)C(C)C` [pepstatin] (Isovaleryl-VV[Sta]A[Sta]-OH), which “induction of Hsp70 by protease inhibitors (FIG. 3A)” value (Hsp70) is on record?
**A.** Its value is “No induction”.

**Q.** For aprotinin, which “induction of Hsp70 by protease inhibitors (FIG. 3A)” value (Hsp70) is on record?
**A.** Its value is “No induction”.
